Literature values in patent US20010007868A1, “COMPOSITIONS FOR INHIBITING INTESTINAL IRON ABSORPTION” (priority 1998, published 2001).
Read-outs that look alike come from different tables or passages of the source.

Assays:
[1] = system: intestinal absorption of iron (IAI)
[2] = fertile women, 50 mg/day over a 10 week period
[3] = rats
[4] = humans

## O=P([O-])([O-])O[C@H]1[C@H](OP(=O)([O-])O)[C@H](OP(=O)([O-])[O-])[C@H](OP(=O)([O-])O)[C@@H](OP(=O)([O-])[O-])[C@@H]1OP(=O)([O-])O.[Na+].[Na+].[Na+].[Na+].[Na+].[Na+].[Na+].[Na+].[Na+] [sodium phytate]
[1]; dose between 50-300 mg consumed at the time of a meal
  reduction of IAI: about 85%

## [Zn] [zinc]
[2]
  reduction of serum ferritin levels: about 20%

## O=C(O)CCCC[C@@H]1CCSS1 (racemic) [Lipoic acid]
[3]
  effect on insulin resistance: improve insulin resistance
[4]
  effect on insulin resistance: improve insulin resistance

## Cc1c(O)c(=O)ccn1C [Deferiprone]
other
  reduction of atherogenesis, in-vivo results: not statistically significant

## O=C1O[C@H]([C@@H](O)CO)C(O)=C1O [ascorbic acid]
[1]; with phytate-containing meal
  effect on IAI: enhances IAI and offsets the inhibitory effect of phytate

## O=C([O-])[O-].[Ca+2] [calcium carbonate]
[1]; doses of about 300 mg per meal, both heme and non-heme iron sources
  decrease of IAI: 50-60%
